According to the NIST ThermoML archive (doi:10.1016/j.jct.2010.03.002):
± gives the expanded uncertainty stated by the source.

Assay: xn = mol fraction of the nth substance listed
Details: 101 kPa, Liquid; for viscosity: Capillary tube (Ostwald / Ubbelohde) method; for mass density: Vibrating tube method

CCCCCCn1cc[n+](C)c1.[Br-] [3-hexyl-1-methyl-1H-imidazolium bromide] + O
Details | mass density, 293.15 K [kg/m3] | mass density, 303.15 K [kg/m3] | mass density, 313.15 K [kg/m3] | mass density, 323.15 K [kg/m3] | mass density, 333.15 K [kg/m3] | viscosity, 293.15 K [mPa·s] | viscosity, 303.15 K [mPa·s] | viscosity, 313.15 K [mPa·s] | viscosity, 323.15 K [mPa·s] | viscosity, 333.15 K [mPa·s]
x2 = 0 | 1227.4 ± 1.7 | 1220.1 ± 1.7 | 1213.3 ± 1.7 | 1205.7 ± 1.7 | 1198.6 ± 1.6 | 6936 ± 750 | 2239 ± 200 | 851.65 ± 56 | 512.14 ± 27 | 350.69 ± 16
x2 = 0.1225 | 1223.4 ± 1.4 | 1216.1 ± 1.4 | 1209.3 ± 1.3 | 1201.8 ± 1.3 | 1194.6 ± 1.3 | 3519 ± 330 | 1255 ± 94 | 503.66 ± 27 | 302.69 ± 13 | 201.69 ± 6.7
x2 = 0.2196 | 1220.4 ± 1.1 | 1213.2 ± 1.1 | 1206.4 ± 1.1 | 1198.8 ± 1.1 | 1191.5 ± 1.1 | 1578 ± 120 | 695.45 ± 42 | 320.14 ± 14 | 180.56 ± 5.7 | 115.66 ± 2.6
x2 = 0.2978 | 1217.9 ± 1 | 1210.8 ± 1 | 1204 ± 0.9 | 1196.2 ± 0.9 | 1189 ± 0.9 | 776.62 ± 48 | 395.49 ± 19 | 194.1 ± 6.6 | 117.64 ± 2.7 | 77.41 ± 1.2
x2 = 0.348 | 1216.3 ± 0.9 | 1209 ± 0.9 | 1202.2 ± 0.8 | 1194.6 ± 0.8 | 1187.4 ± 0.8 | 507.8 ± 27 | 265.62 ± 11 | 143.5 ± 3.9 | 89.65 ± 1.6 | 57.52 ± 0.74
x2 = 0.4166 | 1213.4 ± 0.7 | 1206.2 ± 0.7 | 1199.5 ± 0.7 | 1192 ± 0.7 | 1184.8 ± 0.7 | 313.52 ± 13 | 168.31 ± 5.1 | 97.98 ± 1.9 | 60.85 ± 0.76 | 40.03 ± 0.5
x2 = 0.504 | 1208.7 ± 0.6 | 1201.6 ± 0.6 | 1194.9 ± 0.6 | 1187.5 ± 0.6 | 1180.3 ± 0.6 | 173.73 ± 5.2 | 98.93 ± 2 | 60.18 ± 0.75 | 38.59 ± 0.46 | 26.69 ± 0.31
x2 = 0.5701 | 1203.9 ± 0.5 | 1196.8 ± 0.5 | 1190.1 ± 0.5 | 1182.7 ± 0.5 | 1175.8 ± 0.5 | 111.42 ± 2.3 | 65.77 ± 0.89 | 41.24 ± 0.49 | 27.69 ± 0.3 | 19.36 ± 0.21
x2 = 0.6405 | 1196.9 ± 0.4 | 1189.9 ± 0.4 | 1183.3 ± 0.4 | 1176 ± 0.4 | 1169 ± 0.4 | 70.83 ± 0.91 | 43.45 ± 0.53 | 28.14 ± 0.31 | 19.39 ± 0.19 | 14.63 ± 0.15
x2 = 0.7285 | 1184.3 ± 0.3 | 1177.3 ± 0.3 | 1170.7 ± 0.3 | 1163.5 ± 0.3 | 1156.5 ± 0.3 | 36.4 ± 0.45 | 22.54 ± 0.26 | 15.13 ± 0.16 | 10.75 ± 0.1 | 7.929 ± 0.067
x2 = 0.816 | 1163.7 ± 0.2 | 1156.9 ± 0.2 | 1150.1 ± 0.2 | 1142.9 ± 0.2 | 1136.3 ± 0.2 | 18.13 ± 0.2 | 12.1 ± 0.13 | 8.492 ± 0.076 | – | 4.762 ± 0.058
x2 = 0.9048 | 1123.6 ± 0.2 | 1117.3 ± 0.2 | 1110.7 ± 0.2 | 1104.4 ± 0.2 | 1097.6 ± 0.2 | 6.655 ± 0.059 | 4.764 ± 0.047 | 3.519 ± 0.033 | 2.744 ± 0.025 | 2.184 ± 0.02
x2 = 0.9241 | 1109.4 ± 0.2 | 1103.6 ± 0.2 | 1097 ± 0.2 | 1090.9 ± 0.1 | 1084.2 ± 0.1 | 4.951 ± 0.046 | 3.619 ± 0.035 | 2.764 ± 0.025 | 2.165 ± 0.019 | 1.733 ± 0.016
x2 = 0.944 | 1091.2 ± 0.1 | 1085.4 ± 0.1 | 1079.5 ± 0.1 | 1073.6 ± 0.1 | 1067.2 ± 0.1 | 3.48 ± 0.032 | 2.622 ± 0.023 | – | 1.6 ± 0.016 | 1.301 ± 0.012
x2 = 0.9613 | 1070.9 ± 0.1 | 1065.7 ± 0.1 | 1060.4 ± 0.1 | 1054.7 ± 0.1 | 1048.5 ± 0.1 | 2.438 ± 0.023 | 1.86 ± 0.017 | 1.469 ± 0.012 | – | 0.982 ± 0.013
x2 = 0.9899 | 1022.6 ± 0.1 | 1019.2 ± 0.1 | 1015.1 ± 0.1 | 1010.1 ± 0.1 | 1004.2 ± 0.1 | 1.342 ± 0.014 | 1.047 ± 0.01 | 0.846 ± 0.008 | 0.695 ± 0.006 | 0.588 ± 0.006
